{
  "source": "ChEMBL document CHEMBL5252658",
  "about": "“Conversion of a Cardiac Muscle Modulator from an Inhibitor to an Activator” (ACS Med Chem Lett, 2023)",
  "key": {"[1]": {"species": "Bos taurus", "assay": "Modulation of bovine cardiac myofibrils ATPase activity at 50 uM relative to control", "conditions": "filed as modulator"}, "[2]": {"assay": "Binding affinity to CTNI-CTNC N-domain chimera (unknown origin) assessed as dissociation constant", "set-up": "species or system Homo sapiens"}, "[3]": {"species": "Rattus norvegicus", "assay": "Cardiovascular activity in rat ventricular trabeculae assessed as increase in calcium sensitivity of force development at 50 uM", "format": "functional"}},
  "note": "Activity calls are given as the source filed them. The rule behind the calls is not given here.",
  "data": [
    {"molecule": "NCCCCCCCCNS(=O)(=O)c1cccc(-c2ccc(F)cc2F)c1", "values": [
      {"measurement": "Activity", "setting": "[1]", "value": 30, "unit": "%"},
      {"measurement": "Kd", "setting": "[2]", "value": 60, "unit": "µM"}
    ]},
    {"molecule": "NCCCCCCNS(=O)(=O)c1cccc2c(Cl)cccc12", "values": [
      {"measurement": "Kd", "setting": "[2]", "value": 470, "unit": "µM"}
    ]},
    {"molecule": "NCCCCCCNS(=O)(=O)c1cccc(-c2ccc(F)cc2F)c1", "values": [
      {"measurement": "Activity", "setting": "[1]", "value": 30, "unit": "%"},
      {"measurement": "Activity", "setting": "[3]", "value": "Active"},
      {"measurement": "Kd", "setting": "[2]", "value": 200, "unit": "µM"}
    ]},
    {"molecule": "NCCCCCCCNS(=O)(=O)c1cccc(-c2ccc(F)cc2F)c1", "values": [
      {"measurement": "Activity", "setting": "[1]", "value": 30, "unit": "%"},
      {"measurement": "Kd", "setting": "[2]", "value": 120, "unit": "µM"}
    ]}
  ]
}
